Laboratory results published in paper PMC6522510 (Nature Communications, 2019).

Columns and labels:
[1] = test system: CMK; test: cells; design: species or system AML cell lines (8); Secondary HTS, 10-point dose-response in triplicate, Cell Titer Glo viability, four-parameter fit EC50; conditions: Homo sapiens, CMK, 72 h, read-out: CMK
[2] = test system: Mll-PTD/wt:Flt3ITD/ITD primary transplants; test: In vivo efficacy, survival; design: species or system mice; conditions: Mll-PTD/wt:Flt3ITD/ITD primary transplants, 50 mg kg−1 q4d, i.p.
[3] = In vivo tolerability / maximum tolerated dose; design: species or system mice
Description: Next, we sought to compare the in vivo efficacy of gemcitabine and cabazitaxel to the standard of care, cytarabine. Due to limitations with tolerability, we have previously treated our AML xenograft models with low-dose cytarabine[13],[31]. […] Tolerability studies of gemcitabine at the same dose and schedule was not tolerated. […] Similarly, we performed tolerability of cabazitaxel using multiple doses on an intermittent every 3 or 4-day schedule; the only tolerable dose was 5 mg/kg.
All animal studies were performed in accordance with Animal Care and Use Programs under protocols approved by the Institutional Animal Care and Use Committee at OSU. We have complied with the relevant ethical considerations for animal research overseen by this committee. Mice were housed in a barrier facility. Non-tumor bearing Ly5.2 C57Bl/6 (BoyJ) mice were treated with 100, 120, or 140 mg kg^−1 gemcitabine on an intermittent schedule every 3 days for 3 weeks; 3 or 6 mg kg^−1 doses were used to evaluate daily for 5 days schedule. All doses were administered by intraperitoneal injection; tolerability was assessed by daily weights and observation of changes in body condition.
Supplementary Figure 12. Establish maximum tolerated dose of gemcitabine. Non-tumor bearing female BoyJ mice were treated on an intermittent schedule every 3 days for 3 weeks with 100, 120, or 140 m gkg-1 gemcitabine (Gem ) or treated on a daily schedule once a day for 5 days with 3 or 6 m gkg-1 Gem. Daily weight of treated mice; data reported as a percent weight loss from day 0. Arrow indicate treatment days.

## Nc1ccn([C@@H]2O[C@H](CO)[C@@H](O)C2(F)F)c(=O)n1 [Gemcitabine, gemcitabine]
[1]
  EC50: 8.4 nM
[2]
  Median survival: 69 days
[3]; female, Ly5.2 C57Bl/6 (BoyJ), mouse, in vivo, ip, immunocompetent (BoyJ) mice, daily for 5 days, i.p., read-out: MTD, daily administration
  MTD at 5 days: 3 mg/kg
[3]; immunocompetent (BoyJ) mice, q3d for 3 weeks, i.p.
  MTD, intermittent administration: 120 mg/kg
[3]; mouse, in vivo
  tolerability: not tolerated
